A word on the IC50: it is the concentration that gives 50% inhibition.

Experiment [1] addresses T1, Protein deacetylase HDAC6 (Homo sapiens, UniProt Q9UBN7).
T1 sequence (Q9UBN7 whole entry): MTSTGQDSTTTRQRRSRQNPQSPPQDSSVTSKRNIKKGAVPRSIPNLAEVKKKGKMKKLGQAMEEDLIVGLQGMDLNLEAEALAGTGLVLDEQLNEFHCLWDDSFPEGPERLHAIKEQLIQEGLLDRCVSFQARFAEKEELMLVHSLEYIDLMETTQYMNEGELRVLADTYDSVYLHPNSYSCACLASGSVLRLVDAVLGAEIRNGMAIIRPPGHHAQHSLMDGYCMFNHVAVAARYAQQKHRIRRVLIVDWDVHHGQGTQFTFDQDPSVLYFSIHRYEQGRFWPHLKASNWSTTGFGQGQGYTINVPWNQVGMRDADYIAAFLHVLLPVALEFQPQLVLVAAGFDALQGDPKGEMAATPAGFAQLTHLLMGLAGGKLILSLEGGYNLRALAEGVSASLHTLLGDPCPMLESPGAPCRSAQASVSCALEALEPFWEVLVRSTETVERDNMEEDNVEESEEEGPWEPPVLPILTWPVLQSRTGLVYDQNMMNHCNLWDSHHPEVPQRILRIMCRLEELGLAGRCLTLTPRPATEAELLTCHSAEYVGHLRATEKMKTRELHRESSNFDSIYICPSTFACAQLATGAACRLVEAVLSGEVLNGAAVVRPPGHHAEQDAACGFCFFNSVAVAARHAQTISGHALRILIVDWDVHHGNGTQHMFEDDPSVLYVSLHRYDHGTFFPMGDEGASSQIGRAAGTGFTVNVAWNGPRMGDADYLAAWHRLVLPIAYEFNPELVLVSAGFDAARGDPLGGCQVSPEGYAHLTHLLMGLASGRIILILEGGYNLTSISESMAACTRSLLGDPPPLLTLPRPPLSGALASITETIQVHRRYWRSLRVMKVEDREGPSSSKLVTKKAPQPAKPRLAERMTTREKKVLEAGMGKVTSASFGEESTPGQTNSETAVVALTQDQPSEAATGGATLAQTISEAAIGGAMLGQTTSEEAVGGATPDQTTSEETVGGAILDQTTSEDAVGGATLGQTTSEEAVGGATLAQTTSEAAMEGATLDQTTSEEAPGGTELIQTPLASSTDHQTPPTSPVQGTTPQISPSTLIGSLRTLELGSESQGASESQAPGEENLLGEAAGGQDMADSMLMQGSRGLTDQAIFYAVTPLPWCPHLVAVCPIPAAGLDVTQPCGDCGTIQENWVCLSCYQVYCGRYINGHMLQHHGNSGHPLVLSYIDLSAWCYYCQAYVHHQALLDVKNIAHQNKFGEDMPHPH
Description: Inhibition of recombinant human HDAC6 using Ac-Val-Gly-(NAc)Lys-AMC as substrate incubated for 30 mins by fluorescence based assay.

In experiment [2] the target is Histone deacetylase 1 (Homo sapiens, UniProt Q13547). The experiment in a line: Inhibition of recombinant human HDAC1 using Ac-Val-Gly-(NAc)Lys-AMC as substrate incubated for 30 mins by fluorescence based assay.
Histone deacetylase 1, sequence (Q13547 whole entry): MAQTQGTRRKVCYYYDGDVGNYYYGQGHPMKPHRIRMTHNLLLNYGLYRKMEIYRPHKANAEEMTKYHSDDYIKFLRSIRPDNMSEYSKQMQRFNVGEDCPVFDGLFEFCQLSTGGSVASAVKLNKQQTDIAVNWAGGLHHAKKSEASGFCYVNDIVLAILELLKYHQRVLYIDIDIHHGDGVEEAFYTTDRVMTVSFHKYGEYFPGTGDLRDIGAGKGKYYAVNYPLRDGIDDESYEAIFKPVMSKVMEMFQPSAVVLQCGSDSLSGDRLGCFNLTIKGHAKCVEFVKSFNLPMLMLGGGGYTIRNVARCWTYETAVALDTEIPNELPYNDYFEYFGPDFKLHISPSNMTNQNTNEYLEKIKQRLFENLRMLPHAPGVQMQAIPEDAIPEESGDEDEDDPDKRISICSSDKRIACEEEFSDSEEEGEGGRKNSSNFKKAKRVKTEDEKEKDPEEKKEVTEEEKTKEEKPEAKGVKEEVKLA
For experiment [3], the system named is MCF7. The experiment in a line: Antiproliferative activity against human MCF7 cells expressing ER assessed as inhibition of cell viability at high concentration incubated for 12 days with every 3 day treatment by Alamar blue staining based assay relative to control. It counts as functional. The conditions noted are these: time 12 day. (The colour change of resazurin is a common sign of viable cells or microbes.)

Consider `O=C(CCCCc1ccc(-c2sc3cc(O)ccc3c2C(=O)c2ccc(OCCN3CCCCC3)cc2)cc1)NO`, for which the IC50 in experiment [1] is 221 nM; in experiment [2] it was 257 nM.

As to `O=C(CCCCCCc1ccc(-c2sc3cc(O)ccc3c2C(=O)c2ccc(OCCN3CCCCC3)cc2)cc1)NO`, the IC50 in experiment [1] is 333 nM; in experiment [2], 344 nM.

`O=C(CCCCCOc1ccc(-c2sc3cc(O)ccc3c2C(=O)c2ccc(OCCN3CCCCC3)cc2)cc1)NO`: the results for the IC50 in experiment [1] and in experiment [2] were 21 nM and 132 nM, respectively.

Consider `O=C(CCc1ccc(-c2sc3cc(O)ccc3c2C(=O)c2ccc(OCCN3CCCCC3)cc2)cc1)NO`, for which the values for the IC50 in experiment [1] and in experiment [2] were 202 nM and 464 nM, respectively. The “inhibition (INH)” value in experiment [3] turned out to be 100%.

As to `O=C(CCCOc1ccc(-c2sc3cc(O)ccc3c2C(=O)c2ccc(OCCN3CCCCC3)cc2)cc1)NO`, the figures for the IC50 in experiment [1] and in experiment [2] were 91 nM and 5990 nM, respectively. Also, in experiment [3], the “inhibition (INH)” value amounted to 100%.

Turning to `O=C(CCCCCc1ccc(-c2sc3cc(O)ccc3c2C(=O)c2ccc(OCCN3CCCCC3)cc2)cc1)NO`, the IC50 in experiment [1] was 297 nM; in experiment [2], 12 nM.

Take `O=C(CCCCOc1ccc(-c2sc3cc(O)ccc3c2C(=O)c2ccc(OCCN3CCCCC3)cc2)cc1)NO`: the IC50 in experiment [1] came out at 123 nM; in experiment [2] it was 389 nM.

The values are drawn from ChEMBL document CHEMBL5550172 (Eur J Med Chem, 2024).
